Data taken from patent EP4737442A1, “DIAMINOVINYLIDENE DERIVATIVE OR SALT THEREOF, PEST CONTROL AGENT CONTAINING SAID COMPOUND, AND METHODS FOR USING THESE” (ADEKA CORPORATION, priority 2023, dated 2025).

tested on: Plutella xylostella; assay: Insecticidal test against Plutella xylostella; conditions: in Brassica rapa, 144 h, read-out: corrected mortality (%), assessment
Description: Six days after the immersion in the drug solution, the number of surviving insects was examined.

Row | SMILES | mortality at 500 µg/mL [%]
1 | O=C1CC(c2ccc(C(F)(F)F)cc2)CC(=O)C1=C(Nc1ccc(F)cn1)Nc1ccc(F)cn1 (centres unmarked) [1-1] | 100
2 | CNC(Nc1ccc(F)cc1)=C1C(=O)CC(c2ccc(Br)cn2)CC1=O (centres unmarked) [1-10] | 100
3 | O=C1CC(c2ccc(C(F)(F)F)cc2)CC(=O)C1=C(NCC(F)(F)F)Nc1ccc(F)cc1 (centres unmarked) [1-23] | 100
4 | O=C1CC(c2ccc(C(F)(F)F)cc2)CC(=O)C1=C(NCC(F)(F)F)NCC(F)(F)F (centres unmarked) [1-28] | 100
5 | CC(C)(C)ONC(Nc1ccc(F)cc1)=C1C(=O)CC(c2ccc(C(F)(F)F)cc2)CC1=O (centres unmarked) [1-38] | 100
6 | CC1(C)C(=O)C(=C(Nc2ccc(F)cc2)Nc2ccc(F)cc2)C(=O)CC1c1ccc(Br)cn1 (centres unmarked) [1-44] | 100
7 | CC1(C)C(=O)C(=C(Nc2ccc(F)cn2)Nc2ccc(F)cn2)C(=O)CC1c1ccc(Br)cn1 (centres unmarked) [1-45] | 100
8 | C=CCNC(Nc1ccc(F)cc1)=C1C(=O)CC(c2cnc(C)o2)CC1=O (centres unmarked) [1-115] | 100
9 | O=C1CC(c2ccc(C(F)(F)F)cc2)CC(=O)C1=C(Nc1ccc(F)nc1)Nc1cccnn1 (centres unmarked) [1-116] | 100

tested on: Dirofilaria immitis; assay: Effect test on Dirofilaria immitis (larval motility inhibition); conditions: 168 h, read-out: motility inhibition rate

Row | SMILES | inhibition at 100 µM [%]
10 | O=C1CC(c2ccc(C(F)(F)F)cc2)CC(=O)C1=C(Nc1ccc(F)cn1)Nc1ccc(F)cn1 (centres unmarked) [1-1] | ≥ 50
11 | O=C1CC(c2ccc(Cl)s2)CC(=O)C1=C(Nc1ccc(F)cn1)Nc1ccc(F)cn1 (centres unmarked) [1-2] | ≥ 50
12 | O=C1CC(c2ccc(C(F)(F)F)cc2)CC(=O)C1=C(Nc1ccc(F)nc1)Nc1ccc(F)nc1 (centres unmarked) [1-3] | ≥ 50
13 | O=C1CC(c2ccc(C(F)(F)F)cc2)CC(=O)C1=C(Nc1ccnc(F)c1)Nc1ccnc(F)c1 (centres unmarked) [1-4] | ≥ 50
14 | O=C1CC(c2ccc(Br)cn2)CC(=O)C1=C(Nc1ccc(F)cn1)Nc1ccc(F)cn1 (centres unmarked) [1-5] | ≥ 50
15 | O=C1CC(c2ccc(Br)cn2)CC(=O)C1=C(Nc1ccc(F)nc1)Nc1ccc(F)nc1 (centres unmarked) [1-6] | ≥ 50
16 | O=C1CC(c2ccc(Br)cn2)CC(=O)C1=C(Nc1ccnc(F)c1)Nc1ccnc(F)c1 (centres unmarked) [1-7] | ≥ 50
17 | O=C1CC(c2ccc(C(F)(F)F)nc2)CC(=O)C1=C(Nc1ccc(F)nc1)Nc1ccc(F)nc1 (centres unmarked) [1-8] | ≥ 50
18 | CNC(Nc1ccc(F)cc1)=C1C(=O)CC(c2ccc(Br)cn2)CC1=O (centres unmarked) [1-10] | ≥ 50
19 | CNC(NC)=C1C(=O)CC(c2ccco2)CC1=O (centres unmarked) [1-11] | ≥ 50
20 | O=C1CC(c2ccc(C(F)(F)F)cc2)CC(=O)C1=C(NCc1ccc(OC(F)(F)F)cc1)Nc1ccc(F)cc1 (centres unmarked) [1-14] | ≥ 50
21 | Cc1cc(NC(Nc2ccc(F)cc2)=C2C(=O)CC(c3ccc(C(F)(F)F)cc3)CC2=O)no1 (centres unmarked) [1-15] | ≥ 50
22 | O=C1CC(c2ccc(C(F)(F)F)cc2)CC(=O)C1=C(NCc1ccccn1)Nc1ccc(F)cc1 (centres unmarked) [1-19] | ≥ 50
23 | O=C1CC(c2ccc(C(F)(F)F)cc2)CC(=O)C1=C(NCC(F)(F)F)Nc1ccc(F)cc1 (centres unmarked) [1-23] | ≥ 50
24 | COCCNC(Nc1ccc(F)cc1)=C1C(=O)CC(c2ccc(C(F)(F)F)cc2)CC1=O (centres unmarked) [1-25] | ≥ 50
25 | O=C1CC(c2ccc(C(F)(F)F)cc2)CC(=O)C1=C(NCCBr)Nc1ccc(F)cc1 (centres unmarked) [1-27] | ≥ 50
26 | O=C1CC(c2ccc(C(F)(F)F)cc2)CC(=O)C1=C(NCC(F)(F)F)NCC(F)(F)F (centres unmarked) [1-28] | ≥ 50
27 | COCCNC(NCCOC)=C1C(=O)CC(c2ccc(C(F)(F)F)cc2)CC1=O (centres unmarked) [1-29] | ≥ 50
28 | O=C1CC(c2ccc(C(F)(F)F)cc2)CC(=O)C1=C(NCc1ccc(F)cc1)Nc1ccc(F)cc1 (centres unmarked) [1-34] | ≥ 50
29 | O=C1CC(c2ccc(C(F)(F)F)cc2)CC(=O)C1=C(Nc1ccc(F)cc1)NC1CC1 (centres unmarked) [1-36] | ≥ 50
30 | CC(C)(C)ONC(Nc1ccc(F)cc1)=C1C(=O)CC(c2ccc(C(F)(F)F)cc2)CC1=O (centres unmarked) [1-38] | ≥ 50
31 | CN(C)CCNC(NCCN(C)C)=C1C(=O)CC(c2ccc(C(F)(F)F)cc2)CC1=O (centres unmarked) [1-42] | ≥ 50

Row | SMILES | inhibition at 100 µM [%]
32 | CC1(C)C(=O)C(=C(Nc2ccc(F)cc2)Nc2ccc(F)cc2)C(=O)CC1c1ccc(Br)cn1 (centres unmarked) [1-44] | ≥ 50
33 | CC1(C)C(=O)C(=C(Nc2ccc(F)cn2)Nc2ccc(F)cn2)C(=O)CC1c1ccc(Br)cn1 (centres unmarked) [1-45] | ≥ 50
34 | CC1(C)C(=O)C(=C(Nc2ccc(F)nc2)Nc2ccc(F)nc2)C(=O)CC1c1ccc(Br)cn1 (centres unmarked) [1-46] | ≥ 50
35 | CC1(C)C(=O)C(=C(Nc2ccnc(F)c2)Nc2ccnc(F)c2)C(=O)CC1c1ccc(Br)cn1 (centres unmarked) [1-47] | ≥ 50
36 | O=C1CC(c2ccc(Cl)s2)CC(=O)C1=C(Nc1ccc(F)nc1)Nc1ccc(F)nc1 (centres unmarked) [1-49] | ≥ 50
37 | O=C1CCC(CC(F)(F)F)C(=O)C1=C(Nc1ccc(F)nc1)Nc1ccc(F)nc1 (centres unmarked) [1-52] | ≥ 50
38 | O=C1CCC(CC(F)(F)F)C(=O)C1=C(Nc1ccc(F)cc1)Nc1ccc(F)nc1 (centres unmarked) [1-54] | ≥ 50
39 | CNC(Nc1ccc(F)nc1)=C1C(=O)CC(c2ccc(C(F)(F)F)cc2)CC1=O (centres unmarked) [1-56] | ≥ 50
40 | CNC(Nc1ccc(F)cc1)=C1C(=O)CC(c2ccc(C(F)(F)F)cc2)CC1=O (centres unmarked) [1-57] | ≥ 50
41 | O=C1CC(c2ccc(C(F)(F)F)cc2)CC(=O)C1=C(Nc1ccc(F)cc1)Nc1cnccn1 (centres unmarked) [1-64] | ≥ 50
42 | O=C1CC(c2ccc(C(F)(F)F)cc2)CC(=O)C1=C(Nc1ccc(F)cc1)NC1CCOc2ccccc21 (centres unmarked) [1-69] | ≥ 50
43 | CNC(Nc1ccc(F)nc1)=C1C(=O)CC(c2ccc(C(F)(F)F)cc2)C(c2ccccn2)C1=O (centres unmarked) [1-70] | ≥ 50
44 | O=C1CC(c2ccc(C(F)(F)F)cc2)C(c2ccncc2)C(=O)C1=C(Nc1ccc(F)nc1)Nc1ccc(F)nc1 (centres unmarked) [1-72] | ≥ 50
45 | O=C1CC(c2ccc(C(F)(F)F)cc2)C(c2ccccn2)C(=O)C1=C(Nc1ccc(F)cc1)Nc1ccc(F)nc1 (centres unmarked) [1-73] | ≥ 50
46 | Cn1nc(-c2ccccc2)c(C2CC(=O)C(=C(Nc3ccc(F)cc3)Nc3ccc(F)nc3)C(=O)C2)c1Cl (centres unmarked) [1-79] | ≥ 50
47 | Cn1nc(-c2ccccc2)c(C2CC(=O)C(=C(Nc3ccc(F)cc3)Nc3ccc(F)cc3)C(=O)C2)c1Cl (centres unmarked) [1-80] | ≥ 50
48 | CNC(Nc1ccc(F)cc1)=C1C(=O)CC(c2c(-c3ccccc3)nn(C)c2Cl)CC1=O (centres unmarked) [1-82] | ≥ 50
49 | C=CCNC(Nc1ccc(F)cc1)=C1C(=O)CC(c2cnc(C)o2)CC1=O (centres unmarked) [1-115] | ≥ 50
50 | O=C1CC(c2ccc(C(F)(F)F)cc2)CC(=O)C1=C(Nc1ccc(F)nc1)Nc1cccnn1 (centres unmarked) [1-116] | ≥ 50
51 | CNC(Nc1ccn(C)n1)=C1C(=O)CC(c2ccc(C(F)(F)F)cc2)CC1=O (centres unmarked) [1-117] | ≥ 50
52 | COc1ncccc1NC(Nc1cccnc1OC)=C1C(=O)CC(c2ccc(C(F)(F)F)cc2)CC1=O (centres unmarked) [1-118] | ≥ 50
53 | O=C1CC(c2ccc(C(F)(F)F)nc2)OC(=O)C1=C(Nc1ccnc(F)c1)Nc1ccnc(F)c1 (centres unmarked) [2-1] | ≥ 50

Row | SMILES | inhibition at 100 µM [%]
54 | O=C1CC(c2ccc(C(F)(F)F)nc2)OC(=O)C1=C(Nc1ccc(F)cn1)Nc1ccc(F)cn1 (centres unmarked) [2-2] | ≥ 50
55 | O=C1CC(c2ccc(C(F)(F)F)nc2)OC(=O)C1=C(Nc1ccc(F)nc1)Nc1ccc(F)nc1 (centres unmarked) [2-3] | ≥ 50
56 | CCC1(c2ccc(C(F)(F)F)cc2)CN(C)C(=O)C(=C(NC)Nc2ccc(F)nc2)C1=O (centres unmarked) [3-8] | ≥ 50
57 | CCC1(c2ccc(C(F)(F)F)cc2)CN(C)C(=O)C(=C(Nc2ccc(F)cc2)Nc2ccc(F)nc2)C1=O (centres unmarked) [3-9] | ≥ 50
58 | CCC1(c2ccc(C(F)(F)F)cc2)CN(C)C(=O)C(=C(Nc2ccc(F)nc2)Nc2ccc(F)nc2)C1=O (centres unmarked) [3-10] | ≥ 50
59 | CNC(Nc1ccc(F)nc1)=C1C(=O)CC(c2cc(OC(F)F)n(C)n2)NC1=O (centres unmarked) [3-20] | ≥ 50
60 | O=C1CC(c2cnc(Cl)c(Br)c2)NC(=O)C1=C(Nc1ccc(F)cc1)Nc1ccc(F)nc1 (centres unmarked) [3-43] | ≥ 50
61 | CNC(Nc1ccc(F)cc1)=C1C(=O)CCCN(c2ccc(C(F)(F)F)cc2)C1=O [5-2] | ≥ 50
62 | CNC(Nc1ccc(F)cc1)=C1C(=O)CN(c2cnc(C#N)c(OC)c2)N(C(=O)OC)C1=O [6-21] | ≥ 50
63 | CNC(Nc1ccc(F)cc1)=C1C(=O)CN(c2ccc(C#N)nc2)N(Cc2ccccc2)C1=O [6-27] | ≥ 50
64 | CCOC(=O)N1C(=O)C(=C(NC)Nc2ccc(F)c(F)c2)C(=O)CN1c1ccc(C#N)c(F)c1 [6-29] | ≥ 50
65 | CCOC(=O)N1C(=O)C(=C(NCc2cccc(F)c2)Nc2cccc(F)c2)C(=O)CN1c1ccc(C#N)c(Cl)c1 [6-31] | ≥ 50
66 | CNC(Nc1ccc(F)cc1)=C1C(=O)CN(c2ccccc2)N(c2ccccc2)C1=O [6-35] | ≥ 50
67 | CNC(Nc1ccc(F)cc1)=C1C(=O)CN(c2cnc(C#N)c(Cl)c2)N(C)C1=O [6-44] | ≥ 50
68 | CSC(Nc1ccc(F)nc1)=C1C(=O)CC(c2ccc(Br)s2)NC1=O (centres unmarked) [9-33] | ≥ 50
69 | CSC(Nc1ccc(F)nc1)=C1C(=O)CCN(c2ccc(C(F)(F)F)cc2)C1=O [9-34] | ≥ 50
70 | CCC1(c2ccc(C(F)(F)F)nc2)CN(C)C(=O)C(=C(Nc2ccc(F)nc2)SC)C1=O (centres unmarked) [9-37] | ≥ 50
71 | CCC1(c2ccc3ccccc3n2)CN(C)C(=O)C(=C(Nc2ccc(F)nc2)SC)C1=O (centres unmarked) [9-38] | ≥ 50
72 | O=C1CC(c2ccc(C(F)(F)F)cc2)CC(=O)C1=C(Nc1ccc(F)cc1)Nc1ccc(F)cc1 (centres unmarked) [compound No. 1-9, 2-(bis((4-fluorophenyl)amino)methylene)-5-(4-(trifluoromethyl)phenyl)cyclohexane-1,3-dione] | ≥ 50
73 | CNC(Nc1ccc(F)cc1)=C1C(=O)CC(c2ccc(C(F)(F)F)cc2)N(C)C1=O (centres unmarked) [compound No. 3-1, 3-(((4-fluorophenyl)amino) (methylamino)methylene)-1-methyl-6-(4-(trifluoromethyl)phenyl)piperidine-2,4-dione] | ≥ 50
74 | CCC1(c2ccc(C(F)(F)F)nc2)CN(C)C(=O)C(=C(NC)Nc2ccc(F)cc2)C1=O (centres unmarked) [compound No. 3-2] | ≥ 50
